# Data from the supplement of paper PMC10307832.
# Key:
# Assay in all cases: relative viability (nuclei count vs DMSO), 5 days (fraction); higher = more cells survive
# Alpelisib + Lapatinib = compound: Cc1nc(NC(=O)N2CCC[C@H]2C(N)=O)sc1-c1ccnc(C(C)(C)C(F)(F)F)c1 [Alpelisib] + CS(=O)(=O)CCNCc1ccc(-c2ccc3ncnc(Nc4ccc(OCc5cccc(F)c5)c(Cl)c4)c3c2)o1 [Lapatinib] (partner 2 µM)
# Method in brief: (§1)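 Lung cancer cell lines in 1536-well plates got either a single drug or a fixed anchor-drug dose together with five library-drug doses (not always all listed) in √10 steps, by pin tool, on the day after seeding. Nuclei were counted after 5 days, and relative viability is the treated-to-vehicle ratio of nuclei counts. Values are medians of duplicate plates.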
# Vemurafenib + Navitoclax = compound: CCCS(=O)(=O)Nc1ccc(F)c(C(=O)c2c[nH]c3ncc(-c4ccc(Cl)cc4)cc23)c1F [Vemurafenib] + CC1(C)CCC(c2ccc(Cl)cc2)=C(CN2CCN(c3ccc(C(=O)NS(=O)(=O)c4ccc(N[C@H](CCN5CCOCC5)CSc5ccccc5)c(S(=O)(=O)C(F)(F)F)c4)cc3)CC2)C1 [Navitoclax] (partner 0.5 µM)
# Method in brief: as §1
# OSI-027 + AZD7762 = compound: COc1cccc2cc(-c3nc([C@H]4CC[C@H](C(=O)O)CC4)n4ncnc(N)c34)[nH]c12 [OSI-027] + NC(=O)Nc1cc(-c2cccc(F)c2)sc1C(=O)N[C@H]1CCCNC1 [AZD7762] (partner 0.2 µM)
# Method in brief: as §1
# OSI-027 + Bortezomib = compound: COc1cccc2cc(-c3nc([C@H]4CC[C@H](C(=O)O)CC4)n4ncnc(N)c34)[nH]c12 [OSI-027] + CC(C)C[C@H](NC(=O)[C@H](Cc1ccccc1)NC(=O)c1cnccn1)B(O)O [Bortezomib] (partner 0.002 µM)
# Method in brief: as §1
Cell Line,relative viability (Alpelisib + Lapatinib; first compound 0.04 µM),relative viability (Alpelisib + Lapatinib; first compound 0.1265 µM),relative viability (Alpelisib + Lapatinib; first compound 0.4 µM),relative viability (Alpelisib + Lapatinib; first compound 1.265 µM),relative viability (Alpelisib + Lapatinib; first compound 4 µM),relative viability (Vemurafenib + Navitoclax; first compound 0.03162 µM),relative viability (Vemurafenib + Navitoclax; first compound 0.3162 µM),relative viability (Vemurafenib + Navitoclax; first compound 1 µM),relative viability (OSI-027 + AZD7762; first compound 0.01 µM),relative viability (OSI-027 + AZD7762; first compound 0.03162 µM),relative viability (OSI-027 + AZD7762; first compound 0.1 µM),relative viability (OSI-027 + AZD7762; first compound 0.3162 µM),relative viability (OSI-027 + AZD7762; first compound 1 µM),relative viability (Vemurafenib + Navitoclax; first compound 0.1 µM),relative viability (OSI-027 + Bortezomib; first compound 0.01 µM),relative viability (OSI-027 + Bortezomib; first compound 0.03162 µM),relative viability (OSI-027 + Bortezomib; first compound 0.1 µM),relative viability (OSI-027 + Bortezomib; first compound 0.3162 µM),relative viability (OSI-027 + Bortezomib; first compound 1 µM)
NCI-H1793,0.647,0.642,0.637,0.513,0.613,0.389,0.361,0.454,0.409,0.435,0.399,0.36,0.239,–,–,–,–,–,–
NCI-H1944,0.815,1.04,0.763,0.621,0.451,1.06,1.05,1.04,0.611,0.43,0.648,0.56,0.371,0.846,–,–,–,–,–
NCI-H2009,0.99,1,1.11,0.89,0.889,1.14,1.01,1.05,–,–,–,–,–,1.13,1.07,1.09,0.933,0.929,0.592
NCI-H2023,0.717,0.617,0.312,0.58,0.495,0.974,1.03,1.02,–,–,–,–,–,1.03,0.944,0.926,0.898,0.687,0.358
NCI-H2170,0.269,0.273,0.239,0.248,0.269,0.532,0.639,0.484,0.995,0.824,0.768,0.689,0.515,0.251,–,–,–,–,–
NCI-H2228,1.02,0.788,1.07,0.794,0.486,0.687,1.04,0.841,–,–,–,–,–,0.752,0.977,1.01,0.999,–,0.65
NCI-H2342,–,–,–,–,–,–,–,–,0.444,0.426,0.553,0.414,0.346,–,–,–,–,–,–
SK-LU-1,1.07,0.707,0.858,0.767,0.704,0.914,0.751,0.564,–,–,–,–,–,0.74,1.01,1.26,0.75,0.655,0.404
SK-MES-1,0.454,0.463,0.483,0.409,0.37,1.25,1.27,1.13,–,–,–,–,–,1.3,–,–,–,–,–
SW 900,–,–,–,–,–,–,–,–,0.669,0.575,0.499,0.508,0.402,–,–,–,–,–,–
SW 1573,1.06,1.06,1.06,1.09,0.873,0.927,1.09,0.934,–,–,–,–,–,1.12,1.18,0.897,0.831,0.776,0.732
